Measurements published in patent US12054498B2, “Heteroaromatic macrocyclic ether chemotherapeutic agents” (Nuvalent, Inc., priority 2020, dated 2024).

How the values were obtained:
[1] = biological target: T1, Ba/F3 cells CD74-ROS1 wild-type (wt) (Homo sapiens, UniProt P08922); test: Ba/F3 cell proliferation assay, CD74-ROS1 wild-type; assay type: cell-based; details: 72 hours, CellTiter-Glo
T1 construct: fusion of the C-terminus of ROS1 with the N-terminus of various partner proteins; host or cells: Ba/F3 (RIKEN), retroviral pMSCV-puro; the other entry of the earlier key: CD74 (P04233, HLA class II histocompatibility antigen gamma chain)
Procedure, shortened: (§1)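 Cells were seeded 1 day, then exposed to a 3-fold compound dilution series for 72 hours. Viability was read by CellTiter-Glo luminescence; IC50 came from four-parameter logistic fitting of percent inhibition.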

TRKA-wt = biological target: T2, TRKA-wt (Homo sapiens, UniProt P04629); test: Biochemical kinase assay, TRKA-wt kinase domain; details: apparent inhibitory constant, Morrison equation; ATP 2 mM in substrate solution; read-out: TRKA-wt Ki^app
T2 construct: or TRKA-wt (1 nM, BPS Bio, 40280) kinase domains in buffer; purchased BPS Bio 40280
Procedure, shortened: (§2)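 Continuous fluorescence read (λ=485 nm, every 2 min, 120 min, 30° C). Substrate solution held 2 mM ATP and 26 μM AQT0101 (ROS1/ALK) or AQT0104 (TRKA). Kinase solution: ROS1-G2032R 0.5 nM, ROS1-wt 0.6 nM, TRKA 1 nM, ALK double mutant 3 nM. Initial linear rates fed a Morrison-equation fit giving Ki^app.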

ROS1-wt = biological target: T3, ROS1-wt (Homo sapiens, UniProt P08922); test: Biochemical kinase assay, ROS1-wt kinase domain; details: apparent inhibitory constant, Morrison equation; ATP 2 mM in substrate solution; read-out: ROS1-wt Ki^app
T3 construct: purchased Carna 08-163
Procedure, shortened: (§3)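 Kinetic read: 485 nm, 2-min intervals, 120 min, 30 °C. Substrate mix — ATP 2 mM, AQT0101 26 μM, HEPES 50 mM pH 7.5, MgCl2 10 mM. Output: Ki^app, Morrison equation.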

ALK-wt = biological target: T4, ALK-wt (Homo sapiens, UniProt Q9UM73); test: Biochemical kinase assay, ALK-wt kinase domain; details: apparent inhibitory constant, Morrison equation; ATP 2 mM in substrate solution; read-out: ALK-wt Ki^app
T4 construct: purchased Carna 08-518
Procedure, shortened: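 Compound in DMSO added first, then substrate solution (ATP 2 mM; AQT0101 or AQT0104, 26 μM; pH 7.5 HEPES, 10 mM MgCl2), then kinase solution with enzyme at 0.5–3 nM depending on construct. Kinetic read every 2 min for 120 min at 30° C; Ki^app by Morrison regression.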

[2] = biological target: T5, Ba/F3 cells CD74-ROS1 G2032R (Homo sapiens, UniProt P08922, G2032R); test: Ba/F3 cell proliferation assay, CD74-ROS1 G2032R; assay type: cell-based; details: 72 hours, CellTiter-Glo
T5 construct: fusion of the C-terminus of ROS1 with the N-terminus of various partner proteins; host or cells: Ba/F3 (RIKEN), retroviral pMSCV-puro; the other entry of the earlier key: CD74 (P04233, HLA class II histocompatibility antigen gamma chain)
Procedure, shortened: as §1

[3] = biological target: T6, Ba/F3 cells EML4-ALK wt (variant 1) (Homo sapiens, UniProt Q9UM73); test: Ba/F3 cell proliferation assay, EML4-ALK wt (variant 1); assay type: cell-based; details: 72 hours, CellTiter-Glo
T6 construct: echinoderm microtubule-associated protein-like 4 (EML4) gene and the ALK tyrosine kinase domain; host or cells: Ba/F3 (RIKEN), retroviral pMSCV-puro; the other entry of the earlier key: EML4 (Q9HC35, Echinoderm microtubule-associated protein-like 4)
Procedure, shortened: (§4)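 First, Ba/F3 cells were made IL-3-independent via retroviral fusion expression and puromycin selection, then cloned by single-cell dilution. Next, 1,000 cells/well were plated for a day, exposed to 3-fold diluted compounds for 72 hours, and lysed with CellTiter-Glo. Finally, IC50 was fitted by four-parameter logistic regression.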

[4] = test system: TPM3-NTRK1-wt IC50 / primary target IC50 (e.g. CD74-ROS1-wt); test: TRKA selectivity in Ba/F3 cells (TRKA potency divided by primary target potency); assay type: cell-based; details: for TPM3-NTRK1-wt/CD74-ROS1-G2032R selectivity ratio: TRKA potency / CD74-ROS1-G2032R potency; for TPM3-NTRK1-wt/CD74-ROS1-wt selectivity ratio: TRKA potency / CD74-ROS1-wt potency; for TPM3-NTRK1-wt/EML4-ALK-L1196M-G1202R selectivity ratio: TRKA potency / EML4-ALK-L1196M-G1202R potency; for TPM3-NTRK1-wt/EML4-ALK-wt selectivity ratio: TRKA potency / EML4-ALK-wt potency
Method: TRKA selectivity was calculated by dividing a compound's TRKA potency by its primary target potency (e.g. TPM3-NTRK1-wt IC50/CD74-ROS1-wt IC50). Compound selectivity can be interpreted by binning ratio values: bin A for very high selectivity, ratio >30-fold; bin B for high selectivity, ratio >10-fold; bin C for moderate selectivity, ratio ≥1; and bin D for low selectivity, ratio <1. […] (nd=not determined).

Ba/F3 cells TPM3-TRKA = biological target: T7, Ba/F3 cells TPM3-TRKA (Homo sapiens, UniProt P04629); test: Ba/F3 cell proliferation assay, TPM3-TRKA; assay type: cell-based; details: 72 hours, CellTiter-Glo, read-out: TPM3-NTRK1-wt IC50
T7 construct: host or cells: Ba/F3 (RIKEN), retroviral pMSCV-puro; the other entry of the earlier key: TPM3 (P06753, Tropomyosin alpha-3 chain)
Procedure, shortened: as §4

[5] = biological target: T8, Ba/F3 cells EML4-ALK L1196M/G1202R (variant 1) (Homo sapiens, UniProt Q9UM73, G1202R/L1196M); test: Ba/F3 cell proliferation assay, EML4-ALK L1196M/G1202R (variant 1); assay type: cell-based; details: 72 hours, CellTiter-Glo
T8 construct: echinoderm microtubule-associated protein-like 4 (EML4) gene and the ALK tyrosine kinase domain; host or cells: Ba/F3 (RIKEN), retroviral pMSCV-puro; the other entry of the earlier key: EML4 (Q9HC35, Echinoderm microtubule-associated protein-like 4)
Procedure, shortened: as §4

ROS1-G2032R = biological target: T9, ROS1-G2032R (Homo sapiens, UniProt P08922, G2032R); test: Biochemical kinase assay, ROS1-G2032R kinase domain; details: apparent inhibitory constant, Morrison equation; ATP 2 mM in substrate solution; read-out: ROS1-G2032R Ki^app
T9 construct: purchased SignalChem R14-12BG
Procedure, shortened: as §3

ALK L1196M/G1202R = biological target: T10, ALK L1196M/G1202R (Homo sapiens, UniProt Q9UM73, G1202R/L1196M); test: Biochemical kinase assay, ALK L1196M/G1202R kinase domain; details: apparent inhibitory constant, Morrison equation; ATP 2 mM in substrate solution; read-out: ALK-L1196M-G1202R Ki^app
T10 construct: purchased SignalChem A19-12NG
Procedure, shortened: as §2

T6 sequence (Q9UM73 with tags, fused parts or gaps): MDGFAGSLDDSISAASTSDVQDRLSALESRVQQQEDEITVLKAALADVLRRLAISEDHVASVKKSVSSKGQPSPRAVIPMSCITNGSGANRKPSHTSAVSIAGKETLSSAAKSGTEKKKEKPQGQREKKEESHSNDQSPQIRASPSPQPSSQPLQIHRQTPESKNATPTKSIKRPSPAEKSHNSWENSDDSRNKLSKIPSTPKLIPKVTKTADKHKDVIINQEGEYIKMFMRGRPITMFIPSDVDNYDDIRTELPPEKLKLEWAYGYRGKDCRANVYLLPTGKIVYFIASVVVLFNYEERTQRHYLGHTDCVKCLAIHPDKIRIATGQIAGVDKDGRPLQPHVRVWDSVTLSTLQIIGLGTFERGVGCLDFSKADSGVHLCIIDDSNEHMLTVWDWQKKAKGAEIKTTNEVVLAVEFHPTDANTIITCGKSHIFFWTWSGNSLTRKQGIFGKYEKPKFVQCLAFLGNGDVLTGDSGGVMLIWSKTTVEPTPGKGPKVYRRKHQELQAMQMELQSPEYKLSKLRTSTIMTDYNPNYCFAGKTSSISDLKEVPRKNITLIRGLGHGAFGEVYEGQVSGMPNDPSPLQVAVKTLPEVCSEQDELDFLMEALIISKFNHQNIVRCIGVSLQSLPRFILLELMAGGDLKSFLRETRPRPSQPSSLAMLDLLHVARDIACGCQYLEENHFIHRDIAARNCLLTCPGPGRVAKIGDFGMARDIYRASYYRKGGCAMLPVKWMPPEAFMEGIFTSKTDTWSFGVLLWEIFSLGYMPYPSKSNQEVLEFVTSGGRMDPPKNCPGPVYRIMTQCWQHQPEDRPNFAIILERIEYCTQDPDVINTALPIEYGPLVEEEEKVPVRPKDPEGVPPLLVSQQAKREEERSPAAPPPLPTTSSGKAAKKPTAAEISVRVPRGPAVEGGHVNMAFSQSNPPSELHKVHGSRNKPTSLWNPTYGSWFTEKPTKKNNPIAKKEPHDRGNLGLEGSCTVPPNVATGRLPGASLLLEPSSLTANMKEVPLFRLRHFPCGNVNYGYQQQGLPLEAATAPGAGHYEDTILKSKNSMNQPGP
T9 sequence (P08922 1945-2222 G2032R limits assumed): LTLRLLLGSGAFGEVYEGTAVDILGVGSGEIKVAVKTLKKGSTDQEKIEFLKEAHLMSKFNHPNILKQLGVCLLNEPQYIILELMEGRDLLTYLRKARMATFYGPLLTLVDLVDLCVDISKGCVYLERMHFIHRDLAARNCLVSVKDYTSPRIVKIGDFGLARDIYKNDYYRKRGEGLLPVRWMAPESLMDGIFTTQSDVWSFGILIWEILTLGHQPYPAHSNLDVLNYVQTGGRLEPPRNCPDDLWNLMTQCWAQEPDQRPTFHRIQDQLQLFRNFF
T1 sequence (P08922 1883-2347 limits assumed): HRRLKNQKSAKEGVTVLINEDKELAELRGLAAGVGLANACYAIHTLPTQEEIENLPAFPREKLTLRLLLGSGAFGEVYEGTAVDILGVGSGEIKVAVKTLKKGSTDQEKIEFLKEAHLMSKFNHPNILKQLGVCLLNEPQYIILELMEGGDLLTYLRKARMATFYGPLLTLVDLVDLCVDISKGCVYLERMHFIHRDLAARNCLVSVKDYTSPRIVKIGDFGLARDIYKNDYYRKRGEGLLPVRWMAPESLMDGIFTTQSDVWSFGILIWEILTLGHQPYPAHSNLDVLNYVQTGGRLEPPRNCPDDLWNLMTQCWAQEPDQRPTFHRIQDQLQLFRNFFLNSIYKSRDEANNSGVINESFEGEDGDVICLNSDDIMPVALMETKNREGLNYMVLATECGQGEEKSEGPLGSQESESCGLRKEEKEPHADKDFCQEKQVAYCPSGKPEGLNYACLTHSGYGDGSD
T2 sequence (P04629 510-781 limits assumed): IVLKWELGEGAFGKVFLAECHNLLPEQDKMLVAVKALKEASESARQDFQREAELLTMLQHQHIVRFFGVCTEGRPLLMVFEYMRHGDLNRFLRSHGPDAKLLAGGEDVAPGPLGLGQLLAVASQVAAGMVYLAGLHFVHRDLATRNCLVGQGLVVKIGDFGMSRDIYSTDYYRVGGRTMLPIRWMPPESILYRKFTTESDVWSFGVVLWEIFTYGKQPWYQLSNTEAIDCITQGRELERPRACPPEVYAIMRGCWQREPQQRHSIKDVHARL
T5 sequence (P08922 1883-2347 G2032R limits assumed): as the sequence (P08922 1883-2347 limits assumed) above, with G150R counted along it
T8 sequence (Q9UM73 with tags, fused parts or gaps L1196M/G1202R): as the sequence (Q9UM73 with tags, fused parts or gaps) above, with L635M, G641R counted along it
T7 sequence (P04629 510-796 limits assumed): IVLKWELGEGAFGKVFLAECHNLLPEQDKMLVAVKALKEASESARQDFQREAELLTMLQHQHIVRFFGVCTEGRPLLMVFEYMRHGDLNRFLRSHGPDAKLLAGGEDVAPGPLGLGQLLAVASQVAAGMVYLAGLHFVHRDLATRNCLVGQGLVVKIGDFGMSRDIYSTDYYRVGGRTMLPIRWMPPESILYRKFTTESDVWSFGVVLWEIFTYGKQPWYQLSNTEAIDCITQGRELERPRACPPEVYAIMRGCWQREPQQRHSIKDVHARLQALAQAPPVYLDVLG
T4 sequence (Q9UM73 1116-1392 limits assumed): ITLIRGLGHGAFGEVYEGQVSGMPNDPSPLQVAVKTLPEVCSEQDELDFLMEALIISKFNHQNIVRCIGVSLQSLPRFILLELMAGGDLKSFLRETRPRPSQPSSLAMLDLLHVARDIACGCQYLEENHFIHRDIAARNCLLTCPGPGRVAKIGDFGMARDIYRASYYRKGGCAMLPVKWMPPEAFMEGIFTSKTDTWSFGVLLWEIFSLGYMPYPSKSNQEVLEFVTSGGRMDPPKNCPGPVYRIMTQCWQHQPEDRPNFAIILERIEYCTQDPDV
T10 sequence (Q9UM73 1116-1392 L1196M/G1202R limits assumed): as the sequence (Q9UM73 1116-1392 limits assumed) above, with L81M, G87R counted along it
T3 sequence (P08922 1945-2222 limits assumed): as the sequence (P08922 1945-2222 G2032R limits assumed) above, with R88G counted along it

| IC50 [1] [nM] | Ki (TRKA-wt) [nM] | Ki (ROS1-wt) [nM] | Ki (ALK-wt) [nM] | IC50 [2] [nM] | IC50 [3] [nM] | IC50 (Ba/F3 cells TPM3-TRKA) [nM] | IC50 [5] [nM] | Ki (ROS1-G2032R) [nM] | Ki (ALK L1196M/G1202R) [nM] | SMILES | TPM3-NTRK1-wt/CD74-ROS1-G2032R selectivity ratio [4] | TPM3-NTRK1-wt/CD74-ROS1-wt selectivity ratio [4] | TPM3-NTRK1-wt/EML4-ALK-L1196M-G1202R selectivity ratio [4] | TPM3-NTRK1-wt/EML4-ALK-wt selectivity ratio [4] |
| --- | --- | --- | --- | --- | --- | --- | --- | --- | --- | --- | --- | --- | --- | --- |
| 0.1 to 50 | 50 to 500 | < 50 | < 50 | 0.1 to 50 | 0.1 to 50 | 50 to 500 | 50 to 500 | < 50 | < 50 | C[C@H]1Oc2cc(cnc2N)-c2c(cnn2C2CC2)Cc2nn(C)nc2-c2ccc(F)cc21 [Example 14, (19R)-3-cyclopropyl-16-fluoro-10,19-dimethyl-20-oxa-3,4,9,10,11,23-hexaazapentacyclo[19.3.1.0^2,^6.0^8,^12.0^13,^18]pentacosa-1(24),2(6),4,8,11,13,15,17,21(25),22-decaen-22-amine] | A (bin A for very high selectivity, ratio >30-fold) | A (bin A for very high selectivity, ratio >30-fold) | C (bin C for moderate selectivity, ratio ≥1) | A (bin A for very high selectivity, ratio >30-fold) |
| 0.1 to 50 | 50 to 500 | < 50 | < 50 | 0.1 to 50 | 0.1 to 50 | 50 to 500 | 0.1 to 50 | < 50 | < 50 | CCn1ncc2c1-c1cnc(N)c(c1)O[C@H](C)c1cc(F)ccc1-c1cc(F)nn1C2 [Example 15, (19R)-3-ethyl-10,16-difluoro-19-methyl-20-oxa-3,4,8,9,23-pentaazapentacyclo[19.3.1.0^2,^6.0^8,^12.0^13,^18]pentacosa-1(24),2(6),4,9,11,13,15,17,21(25),22-decaen-22-amine] | A (bin A for very high selectivity, ratio >30-fold) | A (bin A for very high selectivity, ratio >30-fold) | C (bin C for moderate selectivity, ratio ≥1) | A (bin A for very high selectivity, ratio >30-fold) |
| 0.1 to 50 | < 50 | < 50 | < 50 | 0.1 to 50 | 0.1 to 50 | 50 to 500 | 0.1 to 50 | < 50 | < 50 | CCn1ncc2c1-c1cnc(N)c(c1)O[C@H](C)c1cc(F)ccc1-c1cc(Cl)nn1C2 [Example 16, (19R)-10-chloro-3-ethyl-16-fluoro-19-methyl-20-oxa-3,4,8,9,23-pentaazapentacyclo[19.3.1.0^2,^6.0^8,^12.0^13,^18]pentacosa-1(24),2(6),4,9,11,13,15,17,21(25),22-decaen-22-amine] | A (bin A for very high selectivity, ratio >30-fold) | A (bin A for very high selectivity, ratio >30-fold) | C (bin C for moderate selectivity, ratio ≥1) | B (bin B for high selectivity, ratio >10-fold) |
| 0.1 to 50 | > 500 | < 50 | < 50 | 50 to 500 | 50 to 500 | > 500 | > 500 | 50 to 500 | 50 to 500 | C[C@H]1Oc2cc(cnc2N)-c2c(C#N)ncn2Cc2ncncc2-c2ccc(F)cc21 [Example 18, (20R)-23-amino-17-fluoro-20-methyl-21-oxa-4,6,9,11,24-pentaazapentacyclo[20.3.1.0^2,^6.0^8,^13.0^14,^19]hexacosa-1(25),2,4,8(13),9,11,14,16,18,22(26),23-undecaene-3-carbonitrile] | A (bin A for very high selectivity, ratio >30-fold) | A (bin A for very high selectivity, ratio >30-fold) | C (bin C for moderate selectivity, ratio ≥1) | A (bin A for very high selectivity, ratio >30-fold) |
| 0.1 to 50 | > 500 | < 50 | < 50 | 0.1 to 50 | 0.1 to 50 | > 500 | 0.1 to 50 | < 50 | < 50 | C[C@H]1Oc2cc(cnc2N)-c2c(C#N)ncn2Cc2ncccc2-c2ccc(F)cc21 [Example 19, (20R)-23-amino-17-fluoro-20-methyl-21-oxa-4,6,9,24-tetraazapentacyclo[20.3.1.0^3,^6.0^8,^13.0^14,^19]hexacosa-1(25),2,4,8(13),9,11,14,16,18,22(26),23-undecaene-3-carbonitrile] | A (bin A for very high selectivity, ratio >30-fold) | A (bin A for very high selectivity, ratio >30-fold) | A (bin A for very high selectivity, ratio >30-fold) | A (bin A for very high selectivity, ratio >30-fold) |
| 0.1 to 50 | > 500 | < 50 | < 50 | 50 to 500 | 50 to 500 | > 500 | > 500 | 50 to 500 | 50 to 500 | C[C@H]1Oc2cc(cnc2N)-c2c(C#N)noc2Cn2nccc2-c2ccc(F)cc21 [Example 20, (19R)-22-amino-16-fluoro-19-methyl-5,20-dioxa-4,8,9,23-tetraazapentacyclo[19.3.1.0^2,^6.0^8,^12.0^13,^18]pentacosa-1(24),2(6),3,9,11,13(18), 4,16,21 (25),22-decaene-3-carbonitrile] | A (bin A for very high selectivity, ratio >30-fold) | A (bin A for very high selectivity, ratio >30-fold) | C (bin C for moderate selectivity, ratio ≥1) | A (bin A for very high selectivity, ratio >30-fold) |
